Laboratory results reported in publication PMC11527929 (European Journal of Nuclear Medicine and Molecular Imaging, 2024).

Assays:
H69 xenografts [1] = assay: In vivo treatment study, single PRRT dose; parameters: species or system athymic nude mice; conditions: for tumor doubling time: PARPi 10 mg/kg i.p. days 1–5 and 8–12, PRRT ~40 MBq single dose on day 3, untreated 3.6 days; for time after start of treatment to mean tumor volume of 400 mm^3: untreated 10 days
Experimental: Authorization for all animal experiments was obtained from the Regierung von Oberbayern. Mice were housed under specific-pathogen free conditions with access to mouse chow and water ad libitum. […] Animals were regularly monitored as defined in the license.
Mice in the PARPi and combination therapy groups received daily i.p. injections of PARPi on days 1–5 and 8–12 at a dose of 10 mg/kg. […] Length, width and depth of the subcutaneous tumors were measured daily using a caliper and tumor volume was calculated using the ellipsoid formula. Mice were weighed regularly after start of the treatment. Mice were euthanized when they reached pre-defined criteria. […] In the H69 cohort, one animal per group was euthanized 3 days after PRRT (or equivalent time) and tumor, bone and kidney tissues were processed for histopathology.

H69 xenografts [2] = assay: In vivo treatment study, fractionated PRRT dose; parameters: species or system athymic nude mice; conditions: three-fractionated arm: 3 × 20 MBq PRRT days 3, 9, 15, Olaparib 10 mg/kg i.p. days 1–5, 7–11, 13–17, untreated 27 days
Experimental: (§1) Authorization for all animal experiments was obtained from the Regierung von Oberbayern. Mice were housed under specific-pathogen free conditions with access to mouse chow and water ad libitum. Female 7–8 weeks old athymic nude mice (Crl:NU/NCr-Foxn1nu, Charles River Laboratories, Sulzfeld) were subcutaneously injected with 1–4 × 10^6 H69 or H446 cells in 1:1 RPMI-1640 medium:Matrigel (Corning Inc., #11543550). Animals were regularly monitored as defined in the license.
Prior to the beginning of treatment, mice were randomly assigned to 7 treatment groups (n = 5–6 animals/group) with an initial mean tumor volume of approx. 50 mm^3 per group (Supplementary Fig. 2C). […] Body weight and tumor volumes were determined every 2–3 days. Animals were sacrificed when pre-defined endpoint criteria or humane endpoint was reached. In this study, only the pre-defined endpoint, a tumor volume of 1000 mm^3 with a maximal size of ≤ 15 mm in a single dimension, was reached. After a maximum observation period of 4 weeks after the last treatment, the study terminated in accordance with the animal protocol.

H446 xenografts = assay: In vivo treatment study, single PRRT dose; parameters: species or system athymic nude mice; conditions: for tumor doubling time: PARPi 10 mg/kg i.p. days 1–5 and 8–12, PRRT ~40 MBq single dose on day 3, untreated 3.6; for median survival: single PRRT dose study, untreated 12 days
Experimental: as §1
(§2) 10–15 days after xenografting, mice were randomized into 4 (H446) or 6 (H69) groups after stratification for tumor size to ensure a uniform initial tumor size distribution (H446: ~ 150 mm^3; H69: ~ 60 mm^3; Supplementary Fig. 2A, B). Mice in the PARPi and combination therapy groups received daily i.p. injections of PARPi on days 1–5 and 8–12 at a dose of 10 mg/kg. […] Length, width and depth of the subcutaneous tumors were measured daily using a caliper and tumor volume was calculated using the ellipsoid formula. Mice were weighed regularly after start of the treatment. Mice were euthanized when they reached pre-defined criteria. During the study, only the criteria of tumor growth (single dimension ≤ 15 mm) or maximum observation time came into effect. In the H69 cohort, one animal per group was euthanized 3 days after PRRT (or equivalent time) and tumor, bone and kidney tissues were processed for histopathology.

SCLC = conditions: six SCLC patients; no response on CT scans; cited from earlier work
From the text: An alternative therapeutic approach for extended-stage disease could be peptide-receptor radionuclide therapy (PRRT) with somatostatin receptor (SSTR) ligands. The vast majority of SCLC (> 80%) express neuroendocrine markers, and about 50% of all SCLCs express significant levels of somatostatin-receptor type 2 (SSTR2). […] To date, clinical outcomes of retrospective series, which investigated SSTR2-targeted PRRT in SCLC have been rather inconclusive. In one trial, six patients treated with ^90Y-D ...

H446 cells [3] = assay: Clonogenic assay; assay type: cell-based, human; conditions: 0.5 µM PARPi 72 h and/or 12.5 kBq [177Lu]Lu-DOTA-TOC 24 h, colonies after 7 days, mean of 2 independent experiments
Experimental: H446 cells were seeded in 6-well plates 48 h prior to the experiment. […] Following treatment, compounds were removed, and fresh medium was added. After 7 days, colonies were fixed with cold methanol, stained with 5% crystal violet in PBS and subsequently counted. Survival fractions were calculated by dividing the plating efficiency as counted colonies divided by seeded cells of the respective treatment group through the plating efficiency of the untreated control group.

bone marrow and kidney = assay: Histopathology (H&E) after in vivo treatment; parameters: species or system athymic nude mice; conditions: H69 cohort, single dose study; day 3 after PRRT; one animal per group
Experimental: as §2
All samples were fixated in 4% PFA for 24 h and subsequently stored in 70% ethanol at 4 °C until the radioactivity had fully decayed. Samples containing bone for bone marrow analysis were decalcified using OSTEOSOFT® (Merck) solution. Formalin-fixed paraffin embedded (FFPE) tissues were cut into 2 µm sections using a microtome. After deparaffinization and rehydration, tissue sections were subjected to standard H&E staining. Tumor sections were additionally subjected to IHC. […]

H446 cells [4] = assay: Cell viability, AlamarBlue HS assay; assay type: cell-based; conditions: Homo sapiens, NCI-H446, PARPi alone for 72 h, 3 independent experiments
Experimental: (§3) Cell viability was determined using the AlamarBlue high sensitivity (HS) assay (Thermo Fisher Scientific, #A50101). 5,000 cells per well were seeded in 96-well black clear F-bottom plates (H446) or 96-well black clear V-bottom plates (H69). H69 suspension cells were centrifuged and resuspended for each washing step. […] All wells, including untreated wells, contained 0.5% (v/v) DMSO throughout the assay. 96 h after seeding, medium was removed and resazurin (AlamarBlue HS) solution was added to each well at a final concentration of 10% (v/v) and incubated for 1 h at 37 °C before fluorescence was measured using a Biotek Synergy HT plate reader (Excitation: 540/35 nm, Emission: 590/20 nm). Relative viability was calculated in relation to “untreated” wells. We carried out three biological repeats with 3–6 technical replicates per plate. IC50-values were computed by applying the nonlinear regression function (Dose–response – Inhibition; Inhibitor vs. normalized response) in GraphPad Prism 9.

H69 cells = assay: Cell viability, AlamarBlue HS assay; assay type: cell-based; conditions: Homo sapiens, NCI-H69, PARPi alone for 72 h, 3 independent experiments
Experimental: as §3

SMILES: C[C@@H](O)[C@@H]1NC(=O)[C@H](CCCCN)NC(=O)[C@@H](Cc2c[nH]c3ccccc23)NC(=O)[C@H](Cc2ccc(O)cc2)NC(=O)[C@@H](NC(=O)[C@@H](Cc2ccccc2)NC(=O)CN2CCN(CC(=O)O)CCN(CC(=O)O)CCN(CC(=O)O)CC2)CSSC[C@@H](C(=O)N[C@H](CO)[C@@H](C)O)NC1=O [[^177Lu]Lu-DOTA-TOC, metal not drawn]
- tumor doubling time (H69 xenografts [1]): 6.4 days
- time after start of treatment to mean tumor volume of 400 mm^3 (H69 xenografts [1]; single PRRT dose study): 17 days
- median survival (H69 xenografts [1]; single PRRT dose study, untreated 18 days): 24 days
- median survival (H69 xenografts [2]): 34 days
- tumor doubling time (H446 xenografts): 3.7 days
- median survival (H446 xenografts): 11 days

SMILES: C[C@@H](O)[C@@H]1NC(=O)[C@H](CCCCN)NC(=O)[C@@H](Cc2c[nH]c3ccccc23)NC(=O)[C@H](Cc2ccc(O)cc2)NC(=O)[C@@H](NC(=O)[C@@H](Cc2ccccc2)NC(=O)CN2CCN(CC(=O)[O-])CCN(CC(=O)[O-])CCN(CC(=O)[O-])CC2)CSSC[C@@H](C(=O)N[C@H](CO)[C@@H](C)O)NC1=O.[90Y+3] [^90Y-DOTATOC]
- median progression-free survival (SCLC): 38 days

SMILES: CNCc1ccc(-c2[nH]c3cc(F)cc4c3c2CCNC4=O)cc1 [Rucaparib]
- mean surviving fraction, of untreated cells (H446 cells [3]): 13%
- tumor doubling time (H69 xenografts [1]): 4.1 days
- time after start of treatment to mean tumor volume of 400 mm^3 (H69 xenografts [1]; single PRRT dose study): 13 days
- tumor doubling time (H446 xenografts): 3.9 days
- median survival (H446 xenografts): 13 days
- angiectasis in the bone marrow (H&E) (bone marrow and kidney): low levels of angiectasis
- bone marrow cellularity (H&E) (bone marrow and kidney): slight bone marrow hypercellularity
- IC50 (H446 cells [4]): 20 to 40 µM
- IC50 (H69 cells): 20 to 40 µM

SMILES: O=C(c1cc(Cc2n[nH]c(=O)c3ccccc23)ccc1F)N1CCN(C(=O)C2CC2)CC1 [Olaparib]
- mean surviving fraction, of untreated cells (H446 cells [3]): 7%
- tumor doubling time (H69 xenografts [1]): 4.0 days
- time after start of treatment to mean tumor volume of 400 mm^3 (H69 xenografts [1]; single PRRT dose study): 13 days
- IC50 (H446 cells [4]): 20 to 40 µM
- IC50 (H69 cells): 20 to 40 µM
